Each molecule was assayed against T1, TDO (A172 human glioblastoma cells) (Homo sapiens, UniProt P48775) (assay: A172 Kynurenine cell based assay). Conditions: 500 μM L-tryptophan, 48 hours, kynurenine by Erhlich's reagent.
T1 construct: This assay utilised cancer cells which expressed either TDO or IDO; endogenous in cells; host or cells: A172 human glioblastoma cells
Method in brief: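 A172 glioblastoma cells (30,000/well) cultured at 37° C. in phenol red-free RPMI with 10% FCS, 2 mM L-glutamine and 500 μM L-tryptophan, with or without test compound. After 48 hours, kynurenine in the supernatant was read with Erhlich's reagent (5 min) as absorbance at 490 nm.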

T1 sequence (P48775 whole entry): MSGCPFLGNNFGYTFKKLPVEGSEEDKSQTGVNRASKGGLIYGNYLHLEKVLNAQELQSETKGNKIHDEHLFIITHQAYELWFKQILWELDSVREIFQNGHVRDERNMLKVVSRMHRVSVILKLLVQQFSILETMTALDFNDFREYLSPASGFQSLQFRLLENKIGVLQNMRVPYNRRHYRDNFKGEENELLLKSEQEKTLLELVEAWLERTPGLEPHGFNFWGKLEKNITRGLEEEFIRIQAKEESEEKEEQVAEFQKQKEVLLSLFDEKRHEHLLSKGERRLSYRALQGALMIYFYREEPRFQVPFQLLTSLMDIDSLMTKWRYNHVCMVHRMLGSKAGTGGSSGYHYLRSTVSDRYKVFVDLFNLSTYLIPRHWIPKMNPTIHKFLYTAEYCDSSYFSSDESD

Structure (SMILES)	A172 Kynurenine cell based assay pIC50
CS(=O)(=O)N1CC=C(c2c[nH]c3cc(Cl)ccc23)CC1 [Compound 76]	++ (++ = pIC50 5.00-5.99)
CC(=O)N1CC=C(c2c[nH]c3cccc(F)c23)CC1 [Compound 77]	+ (+ = pIC50 4.00-4.99)
CS(=O)(=O)N1CC=C(c2c[nH]c3cccc(F)c23)CC1 [Compound 78]	+ (+ = pIC50 4.00-4.99)
CC(=O)N1CC=C(c2c[nH]c3cc(Cl)ccc23)CC1 [Compound 79]	++ (++ = pIC50 5.00-5.99)
CN(C)CC(=O)N1CCC(c2c[nH]c3ccccc23)CC1 [Compound 81]	+− (+− = pIC50 <4.00)
O=C(c1ccccc1)N1CCC(c2c[nH]c3ccccc23)CC1 [Compound 82]	+ (+ = pIC50 4.00-4.99)
CCCC(=O)N1CCC(c2c[nH]c3ccccc23)CC1 [Compound 83]	+ (+ = pIC50 4.00-4.99)
COCC(=O)N1CCC(c2c[nH]c3ccccc23)CC1 [Compound 84]	+ (+ = pIC50 4.00-4.99)
Cc1ccc2[nH]cc(C3CCN(S(C)(=O)=O)CC3)c2c1 [Compound 85]	++ (++ = pIC50 5.00-5.99)
CC(=O)N1CC=C(c2c[nH]c3ccc(F)cc23)CC1 [Compound 86]	++ (++ = pIC50 5.00-5.99)
COc1cccc2c(C3=CCN(C(C)=O)CC3)c[nH]c12 [Compound 88]	+ (+ = pIC50 4.00-4.99)
CC(=O)N1CC=C(c2c[nH]c3ccc(C)cc23)CC1 [Compound 89]	+ (+ = pIC50 4.00-4.99)
CS(=O)(=O)N1CC=C(c2c[nH]c3ccc(F)cc23)CC1 [Compound 90]	++ (++ = pIC50 5.00-5.99)
Cc1ccc2[nH]cc(C3=CCN(S(C)(=O)=O)CC3)c2c1 [Compound 92]	++ (++ = pIC50 5.00-5.99)
COc1cccc2c(C3=CCN(S(C)(=O)=O)CC3)c[nH]c12 [Compound 93]	+− (+− = pIC50 <4.00)
CC(=O)N1CC=C(c2c[nH]c3c(F)cccc23)CC1 [Compound 94]	+ (+ = pIC50 4.00-4.99)
CS(=O)(=O)N1CCC(c2c[nH]c3cccc(F)c23)CC1 [Compound 95]	+ (+ = pIC50 4.00-4.99)
CC(=O)N1CCC(c2c[nH]c3cccc(F)c23)CC1 [Compound 98]	+ (+ = pIC50 4.00-4.99)
CC(=O)N1CCC(c2c[nH]c3ncccc23)CC1 [Compound 99]	+− (+− = pIC50 <4.00)
CS(=O)(=O)N1CC=C(c2c[nH]c3c(F)cccc23)CC1 [Compound 100]	+ (+ = pIC50 4.00-4.99)
CC(=O)N1CC=C(c2n[nH]c3ccccc23)CC1 [Compound 102]	+− (+− = pIC50 <4.00)

What follows are molecules tested against Recombinant human IDO (Homo sapiens, UniProt P14902) (assay: hIDO biochemical coupled assay). Conditions: 45 μM L-tryptophan, coupled with kynurenine formamidase.
Sequence of Recombinant human IDO (P14902 whole entry): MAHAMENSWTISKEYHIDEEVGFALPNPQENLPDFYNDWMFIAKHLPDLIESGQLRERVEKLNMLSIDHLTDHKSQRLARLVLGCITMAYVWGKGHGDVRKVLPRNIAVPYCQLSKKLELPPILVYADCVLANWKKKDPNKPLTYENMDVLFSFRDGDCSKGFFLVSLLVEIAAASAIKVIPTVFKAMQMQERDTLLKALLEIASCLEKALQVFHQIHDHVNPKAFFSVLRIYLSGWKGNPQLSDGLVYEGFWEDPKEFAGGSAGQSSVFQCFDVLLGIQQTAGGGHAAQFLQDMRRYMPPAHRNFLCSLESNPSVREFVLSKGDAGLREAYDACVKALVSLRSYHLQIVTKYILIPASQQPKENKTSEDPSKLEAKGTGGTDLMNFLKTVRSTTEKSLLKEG
Method in brief: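 Recombinant human IDO incubated in 50 mM KPO4 (pH 7.0), 0.5 mM EGTA, 0.5 mM EDTA, 0.05% Triton X100, 20 mM ascorbate, 10 μM methylene blue, 500 U/ml catalase and 50 μg/ml kynurenine formamidase. N-formylkynurenine converted to kynurenine, quantified by fluorescence after Ehrlich's reagent.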

Structure (SMILES)	hIDO biocehmical assay pIC50
CS(=O)(=O)N1CC=C(c2c[nH]c3cc(Cl)ccc23)CC1 [Compound 76]	+− (+− = pIC50 <4.00)
CC(=O)N1CC=C(c2c[nH]c3cccc(F)c23)CC1 [Compound 77]	+− (+− = pIC50 <4.00)
CS(=O)(=O)N1CC=C(c2c[nH]c3cccc(F)c23)CC1 [Compound 78]	+− (+− = pIC50 <4.00)
CC(=O)N1CC=C(c2c[nH]c3cc(Cl)ccc23)CC1 [Compound 79]	+− (+− = pIC50 <4.00)
CN(C)CC(=O)N1CCC(c2c[nH]c3ccccc23)CC1 [Compound 81]	+− (+− = pIC50 <4.00)
O=C(c1ccccc1)N1CCC(c2c[nH]c3ccccc23)CC1 [Compound 82]	+− (+− = pIC50 <4.00)
CCCC(=O)N1CCC(c2c[nH]c3ccccc23)CC1 [Compound 83]	+− (+− = pIC50 <4.00)
COCC(=O)N1CCC(c2c[nH]c3ccccc23)CC1 [Compound 84]	+− (+− = pIC50 <4.00)
Cc1ccc2[nH]cc(C3CCN(S(C)(=O)=O)CC3)c2c1 [Compound 85]	+− (+− = pIC50 <4.00)
CC(=O)N1CC=C(c2c[nH]c3ccc(F)cc23)CC1 [Compound 86]	+− (+− = pIC50 <4.00)
COc1cccc2c(C3=CCN(C(C)=O)CC3)c[nH]c12 [Compound 88]	+− (+− = pIC50 <4.00)
CC(=O)N1CC=C(c2c[nH]c3ccc(C)cc23)CC1 [Compound 89]	+− (+− = pIC50 <4.00)
CS(=O)(=O)N1CC=C(c2c[nH]c3ccc(F)cc23)CC1 [Compound 90]	+− (+− = pIC50 <4.00)
Cc1ccc2[nH]cc(C3=CCN(S(C)(=O)=O)CC3)c2c1 [Compound 92]	+− (+− = pIC50 <4.00)
COc1cccc2c(C3=CCN(S(C)(=O)=O)CC3)c[nH]c12 [Compound 93]	+− (+− = pIC50 <4.00)
CC(=O)N1CC=C(c2c[nH]c3c(F)cccc23)CC1 [Compound 94]	+− (+− = pIC50 <4.00)
CS(=O)(=O)N1CCC(c2c[nH]c3cccc(F)c23)CC1 [Compound 95]	+− (+− = pIC50 <4.00)
CC(=O)N1CCC(c2c[nH]c3cccc(F)c23)CC1 [Compound 98]	+− (+− = pIC50 <4.00)
CC(=O)N1CCC(c2c[nH]c3ncccc23)CC1 [Compound 99]	+− (+− = pIC50 <4.00)
CS(=O)(=O)N1CC=C(c2c[nH]c3c(F)cccc23)CC1 [Compound 100]	+− (+− = pIC50 <4.00)
CC(=O)N1CC=C(c2n[nH]c3ccccc23)CC1 [Compound 102]	+− (+− = pIC50 <4.00)

What follows are molecules tested against T2, IDO (SKOV3 human ovarian adenocarcinoma cells, IFN-γ induced) (Homo sapiens, UniProt P14902) (assay: SKOV3 Kynurenine cell based assay). Conditions: IDO induced by 500 ng/ml IFN-γ, 500 μM L-tryptophan, 48 hours.
T2 construct: IDO expression was induced in the SKOV3 cells by the addition of 500 ng/ml IFN-γ; endogenous in cells; host or cells: SKOV3 human ovarian adenocarcinoma cells, induced with IFN-γ
T2 sequence (P14902 whole entry): as above
Method in brief: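 IFN-γ (500 ng/ml) induced IDO in SKOV3 cells, seeded at 40,000/well in phenol red-free RPMI with 10% FCS, 2 mM L-glutamine and 500 μM L-tryptophan. Cells were incubated with or without compound at 37° C for 48 h. Supernatant kynurenine was detected with Ehrlich's reagent.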

Structure (SMILES)	SKOV3 Kynurenine cell based assay pIC50
CS(=O)(=O)N1CC=C(c2c[nH]c3cc(Cl)ccc23)CC1 [Compound 76]	+ (+ = pIC50 4.00-4.99)
CC(=O)N1CC=C(c2c[nH]c3cccc(F)c23)CC1 [Compound 77]	+ (+ = pIC50 4.00-4.99)
CS(=O)(=O)N1CC=C(c2c[nH]c3cccc(F)c23)CC1 [Compound 78]	+− (+− = pIC50 <4.00)
CC(=O)N1CC=C(c2c[nH]c3cc(Cl)ccc23)CC1 [Compound 79]	+ (+ = pIC50 4.00-4.99)
CN(C)CC(=O)N1CCC(c2c[nH]c3ccccc23)CC1 [Compound 81]	+− (+− = pIC50 <4.00)
O=C(c1ccccc1)N1CCC(c2c[nH]c3ccccc23)CC1 [Compound 82]	+− (+− = pIC50 <4.00)
CCCC(=O)N1CCC(c2c[nH]c3ccccc23)CC1 [Compound 83]	+− (+− = pIC50 <4.00)
COCC(=O)N1CCC(c2c[nH]c3ccccc23)CC1 [Compound 84]	+− (+− = pIC50 <4.00)
Cc1ccc2[nH]cc(C3CCN(S(C)(=O)=O)CC3)c2c1 [Compound 85]	++ (++ = pIC50 5.00-5.99)
CC(=O)N1CC=C(c2c[nH]c3ccc(F)cc23)CC1 [Compound 86]	+ (+ = pIC50 4.00-4.99)
COc1cccc2c(C3=CCN(C(C)=O)CC3)c[nH]c12 [Compound 88]	+− (+− = pIC50 <4.00)
CC(=O)N1CC=C(c2c[nH]c3ccc(C)cc23)CC1 [Compound 89]	+ (+ = pIC50 4.00-4.99)
CS(=O)(=O)N1CC=C(c2c[nH]c3ccc(F)cc23)CC1 [Compound 90]	+ (+ = pIC50 4.00-4.99)
Cc1ccc2[nH]cc(C3=CCN(S(C)(=O)=O)CC3)c2c1 [Compound 92]	+ (+ = pIC50 4.00-4.99)
COc1cccc2c(C3=CCN(S(C)(=O)=O)CC3)c[nH]c12 [Compound 93]	+− (+− = pIC50 <4.00)
CC(=O)N1CC=C(c2c[nH]c3c(F)cccc23)CC1 [Compound 94]	+− (+− = pIC50 <4.00)
CS(=O)(=O)N1CCC(c2c[nH]c3cccc(F)c23)CC1 [Compound 95]	+− (+− = pIC50 <4.00)
CC(=O)N1CCC(c2c[nH]c3cccc(F)c23)CC1 [Compound 98]	+− (+− = pIC50 <4.00)
CC(=O)N1CCC(c2c[nH]c3ncccc23)CC1 [Compound 99]	+ (+ = pIC50 4.00-4.99)
CS(=O)(=O)N1CC=C(c2c[nH]c3c(F)cccc23)CC1 [Compound 100]	+− (+− = pIC50 <4.00)
CC(=O)N1CC=C(c2n[nH]c3ccccc23)CC1 [Compound 102]	+− (+− = pIC50 <4.00)

Each molecule was assayed against Recombinant human TDO (Homo sapiens, UniProt P48775) (assay: hTDO biochemical coupled assay). Conditions: 330 μM L-tryptophan, coupled with kynurenine formamidase.
Sequence of Recombinant human TDO (P48775 whole entry): as the sequence (P48775 whole entry) above
Method in brief: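 Recombinant human TDO with 330 μM L-tryptophan in 50 mM KPO4 pH 7.0 containing EGTA, EDTA, Triton X100, ascorbate, methylene blue, catalase and kynurenine formamidase (KynB), 17 min at room temperature. Stopped with Ehrlich's reagent, 5 min, then kynurenine fluorescence read (Ex475, Em530).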

Structure (SMILES)	hTDO biochemical assay pIC50
CS(=O)(=O)N1CC=C(c2c[nH]c3cc(Cl)ccc23)CC1 [Compound 76]	++ (++ = pIC50 5.00-5.99)
CC(=O)N1CC=C(c2c[nH]c3cccc(F)c23)CC1 [Compound 77]	+ (+ = pIC50 4.00-4.99)
CS(=O)(=O)N1CC=C(c2c[nH]c3cccc(F)c23)CC1 [Compound 78]	+ (+ = pIC50 4.00-4.99)
CC(=O)N1CC=C(c2c[nH]c3cc(Cl)ccc23)CC1 [Compound 79]	++ (++ = pIC50 5.00-5.99)
CN(C)CC(=O)N1CCC(c2c[nH]c3ccccc23)CC1 [Compound 81]	+ (+ = pIC50 4.00-4.99)
O=C(c1ccccc1)N1CCC(c2c[nH]c3ccccc23)CC1 [Compound 82]	+− (+− = pIC50 <4.00)
CCCC(=O)N1CCC(c2c[nH]c3ccccc23)CC1 [Compound 83]	+− (+− = pIC50 <4.00)
COCC(=O)N1CCC(c2c[nH]c3ccccc23)CC1 [Compound 84]	+− (+− = pIC50 <4.00)
Cc1ccc2[nH]cc(C3CCN(S(C)(=O)=O)CC3)c2c1 [Compound 85]	+− (+− = pIC50 <4.00)
CC(=O)N1CC=C(c2c[nH]c3ccc(F)cc23)CC1 [Compound 86]	+++ (+++ = pIC50 ≥6.00)
COc1cccc2c(C3=CCN(C(C)=O)CC3)c[nH]c12 [Compound 88]	++ (++ = pIC50 5.00-5.99)
CC(=O)N1CC=C(c2c[nH]c3ccc(C)cc23)CC1 [Compound 89]	++ (++ = pIC50 5.00-5.99)
CS(=O)(=O)N1CC=C(c2c[nH]c3ccc(F)cc23)CC1 [Compound 90]	++ (++ = pIC50 5.00-5.99)
Cc1ccc2[nH]cc(C3=CCN(S(C)(=O)=O)CC3)c2c1 [Compound 92]	+ (+ = pIC50 4.00-4.99)
COc1cccc2c(C3=CCN(S(C)(=O)=O)CC3)c[nH]c12 [Compound 93]	+ (+ = pIC50 4.00-4.99)
CC(=O)N1CC=C(c2c[nH]c3c(F)cccc23)CC1 [Compound 94]	+ (+ = pIC50 4.00-4.99)
CS(=O)(=O)N1CCC(c2c[nH]c3cccc(F)c23)CC1 [Compound 95]	+− (+− = pIC50 <4.00)
CC(=O)N1CCC(c2c[nH]c3cccc(F)c23)CC1 [Compound 98]	+− (+− = pIC50 <4.00)
CC(=O)N1CCC(c2c[nH]c3ncccc23)CC1 [Compound 99]	+− (+− = pIC50 <4.00)
CS(=O)(=O)N1CC=C(c2c[nH]c3c(F)cccc23)CC1 [Compound 100]	+− (+− = pIC50 <4.00)
CC(=O)N1CC=C(c2n[nH]c3ccccc23)CC1 [Compound 102]	+ (+ = pIC50 4.00-4.99)

Source: patent US9931347B2, “Pharmaceutical compound” (IOmet Pharma Ltd., priority 2013, dated 2018)
